# Measurements reported in US7597899B2, “Compositions comprising a combination of a free sphingoid base and ceramide and uses thereof” (Cosmoferm B.V., priority 1997, dated 2009).
# Test system: IL-1α
# Test: IL-1α secretion by UV-B irradiated excised human skin explants (ELISA), marker for antiinflammatory activity
# Type: cell-based
# Conditions: applied before and after UV-B irradiation, * significant p < 0.05
# Description: The effect of phytosphingosine was assessed ex vivo on excised human skin explants.
# The explant was exposed to UV-B rays as a physical, proinflammatory stress.
# The antiinflammatory effect of phytosphingosine was evaluated by measurement of the amount of the cytokine IL-1α secreted in the incubation medium of the skin explants.
# • Preparation of the human skin explants obtained after plastic surgery using standard techniques. • Application of the test product: • resp. 0% (Placebo), 0.2 and 0.5% phytosphingosine (PS) in Propylene glycol:Ethanol (60:40). • Dexamethasone (1 μM) was used as the reference product. • The products were applied before and after irradiation (˜2 mg/cm^2) • IL-1α secretion was measured in the incubation medium of the skin explants, using a standard ELISA technique. • Each experimental condition was performed in triplicate.
Compound,"IL-1α secreted in the incubation medium (0.2% PS in Propylene glycol:Ethanol (60:40), ~2 mg/cm^2, placebo 165)","IL-1α secreted in the incubation medium (0.5% PS in Propylene glycol:Ethanol (60:40), ~2 mg/cm^2, placebo 165)","IL-1α secreted in the incubation medium (Dexamethasone 1 μM, before UV-B 48, after UV-B 205, placebo 165)"
"CCCCCCCCCCCCCCC(O)C(O)C(N)CO (stereo not drawn) [PS, 2-amino-octadecane-1,3,4-triol]",82* pg per ml,92* pg per ml,–
"C[C@@H]1C[C@H]2[C@@H]3CCC4=CC(=O)C=C[C@]4(C)[C@@]3(F)[C@@H](O)C[C@]2(C)[C@@]1(O)C(=O)CO [Dexamethasone, reference compound]",–,–,116* pg per ml
